Reference: patent publication US9695155B2, “Herbicidal substituted pyrimidinyloxy benzene compounds” (E. I. DU PONT DE NEMOURS AND COMPANY, priority 2013, dated 2017)

Legend:
[1] = tested on: giant foxtail; experiment: Test A postemergence; assay type: in vivo, Setaria faberii; details: Setaria faberi, post-emergence, 240 h; for pest or weed control at 125 g/ha: 125 g ai/ha, read-out: Foxtail, Giant plant response rating
How it was run: (§1)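 Pre- and postemergence greenhouse screen. Soil: loam + sand. Spray carrier: solvent mixture, non-phytotoxic, with surfactant. Post timing at 1–2 leaves, height 2–10 cm. Readout: visual injury on a 0–100 scale roughly 10 days after application, untreated plants as reference.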

[2] = tested on: wheat; experiment: Test A postemergence; assay type: in vivo, Triticum aestivum; details: Triticum aestivum, post-emergence, 240 h; for plant injury at 125 g/ha: 125 g ai/ha, read-out: Wheat plant response rating
How it was run: as §1

[3] = tested on: rice; experiment: Test B flooded paddy test; assay type: in vivo, Oryza sativa; details: Oryza sativa; Flood, 250 g ai/ha; 0 to 100 scale where 0 is no effect and 100 is complete control; read-out: Plant response rating, Rice
How it was run: (§2)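 Compound added straight to paddy water, with pots kept flooded 3 cm above soil, on plants grown to the 2-leaf stage. Visual scoring 0-100 (100 = complete control) against untreated controls after 13 to 15 greenhouse days.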

[4] = tested on: Heteranthera limosa; experiment: Test B flooded paddy test; assay type: in vivo; details: Heteranthera limosa, Flood, 250 g ai/ha; 0 to 100 scale where 0 is no effect and 100 is complete control; read-out: Plant response rating, Ducksalad
How it was run: as §2

[5] = tested on: lambsquarters; experiment: Test C postemergence; assay type: in vivo, Chenopodium album; details: for pest or weed control at 16 g/ha / pest or weed control at 125 g/ha / pest or weed control at 62 g/ha: Chenopodium album, post-emergence; for pest or weed control at 16 g/ha: 16 g ai/ha, 0 is no effect, 100 is complete control, read-out: Plant response rating (0 to 100), Lambsquarters; for pest or weed control at 16 g/ha / pest or weed control at 125 g/ha / Lambsquarters plant response rating: postemergence; for pest or weed control at 125 g/ha: 125 g ai/ha; for pest or weed control at 125 g/ha / Lambsquarters plant response rating: visual rating; for pest or weed control at 125 g/ha / pest or weed control at 62 g/ha / Lambsquarters plant response rating: scale 0 to 100 (0 no effect, 100 complete control); for pest or weed control at 125 g/ha / pest or weed control at 62 g/ha: read-out: Plant response rating, Lambsquarters; for pest or weed control at 62 g/ha: Postemergence, 62 g ai/ha; for Lambsquarters plant response rating: 31 g ai/ha, 13 to 15 days
How it was run: (§3)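 Visual ratings on a 0–100 scale (100 = complete control) were made versus untreated controls after 13–15 greenhouse days. Chemicals in a surfactant-containing non-phytotoxic solvent were applied either preemergence to seeds in loam–sand soil or postemergence to 1- to 4-leaf plants 2–18 cm tall.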

[6] = tested on: morningglory; experiment: Test C postemergence; assay type: in vivo, Ipomoea coccinea; details: for pest or weed control at 16 g/ha / pest or weed control at 125 g/ha / pest or weed control at 62 g/ha: Ipomoea, post-emergence; for pest or weed control at 16 g/ha: 16 g ai/ha, 0 is no effect, 100 is complete control, read-out: Plant response rating (0 to 100), Morningglory; for pest or weed control at 16 g/ha / pest or weed control at 125 g/ha / Morningglory plant response rating: postemergence; for pest or weed control at 125 g/ha: 125 g ai/ha; for pest or weed control at 125 g/ha / Morningglory plant response rating: visual rating; for pest or weed control at 125 g/ha / pest or weed control at 62 g/ha / Morningglory plant response rating: scale 0 to 100 (0 no effect, 100 complete control); for pest or weed control at 125 g/ha / pest or weed control at 62 g/ha: read-out: Plant response rating, Morningglory; for pest or weed control at 62 g/ha: Postemergence, 62 g ai/ha; for Morningglory plant response rating: 31 g ai/ha, 13 to 15 days
How it was run: as §3

[7] = tested on: pigweed; experiment: Test C postemergence; assay type: in vivo, Amaranthus retroflexus; details: for pest or weed control at 16 g/ha / pest or weed control at 125 g/ha / pest or weed control at 62 g/ha: Amaranthus retroflexus, post-emergence; for pest or weed control at 16 g/ha: 16 g ai/ha, 0 is no effect, 100 is complete control, read-out: Plant response rating (0 to 100), Pigweed; for pest or weed control at 16 g/ha / pest or weed control at 125 g/ha / Pigweed plant response rating: postemergence; for pest or weed control at 125 g/ha: 125 g ai/ha; for pest or weed control at 125 g/ha / Pigweed plant response rating: visual rating; for pest or weed control at 125 g/ha / pest or weed control at 62 g/ha / Pigweed plant response rating: scale 0 to 100 (0 no effect, 100 complete control); for pest or weed control at 125 g/ha / pest or weed control at 62 g/ha: read-out: Plant response rating, Pigweed; for pest or weed control at 62 g/ha: Postemergence, 62 g ai/ha; for Pigweed plant response rating: 31 g ai/ha, 13 to 15 days
How it was run: as §3

[8] = tested on: soybean; experiment: Test C postemergence; assay type: in vivo, Glycine max; details: for Soybean plant response rating (crop injury, 0-100 scale) at 16 g/ha / Soybean plant response rating (crop injury, 0-100 scale) at 125 g/ha / Soybean plant response rating (crop injury, 0-100 scale) at 62 g/ha: Glycine max, post-emergence; for Soybean plant response rating (crop injury, 0-100 scale) at 16 g/ha: 16 g ai/ha, 0 is no effect, 100 is complete control; for Soybean plant response rating (crop injury, 0-100 scale) at 16 g/ha / Soybean plant response rating (crop injury, 0-100 scale) at 125 g/ha / Soybean plant response rating: postemergence; for Soybean plant response rating (crop injury, 0-100 scale) at 125 g/ha: 125 g ai/ha, read-out: Plant response rating, Soybean; for Soybean plant response rating (crop injury, 0-100 scale) at 125 g/ha / Soybean plant response rating: visual rating; for Soybean plant response rating (crop injury, 0-100 scale) at 125 g/ha / Soybean plant response rating (crop injury, 0-100 scale) at 62 g/ha / Soybean plant response rating: scale 0 to 100 (0 no effect, 100 complete control); for Soybean plant response rating (crop injury, 0-100 scale) at 62 g/ha: Postemergence, 62 g ai/ha; for Soybean plant response rating: 31 g ai/ha, 13 to 15 days
How it was run: as §3

[9] = tested on: oilseed rape; experiment: Test C postemergence; assay type: in vivo, Brassica napus; details: for plant injury at 16 g/ha / plant injury at 125 g/ha / plant injury at 62 g/ha: Brassica napus, post-emergence; for plant injury at 16 g/ha: 16 g ai/ha, 0 is no effect, 100 is complete control, read-out: Plant response rating (0 to 100), Oilseed Rape; for plant injury at 16 g/ha / plant injury at 125 g/ha / Oilseed Rape plant response rating: postemergence; for plant injury at 125 g/ha: 125 g ai/ha; for plant injury at 125 g/ha / Oilseed Rape plant response rating: visual rating; for plant injury at 125 g/ha / plant injury at 62 g/ha / Oilseed Rape plant response rating: scale 0 to 100 (0 no effect, 100 complete control); for plant injury at 125 g/ha / plant injury at 62 g/ha: read-out: Plant response rating, Oilseed Rape; for plant injury at 62 g/ha: Postemergence, 62 g ai/ha; for Oilseed Rape plant response rating: 31 g ai/ha, 13 to 15 days
How it was run: as §3

[10] = tested on: kochia; experiment: Test C postemergence; assay type: in vivo, Kochia scoparia; details: Bassia scoparia, post-emergence; for pest or weed control at 16 g/ha: 16 g ai/ha, 0 is no effect, 100 is complete control, read-out: Plant response rating (0 to 100), Kochia; for pest or weed control at 16 g/ha / pest or weed control at 125 g/ha / pest or weed control at 31 g/ha: postemergence; for pest or weed control at 125 g/ha: 125 g ai/ha; for pest or weed control at 125 g/ha / pest or weed control at 31 g/ha: visual rating; for pest or weed control at 125 g/ha / pest or weed control at 62 g/ha / pest or weed control at 31 g/ha: scale 0 to 100 (0 no effect, 100 complete control); for pest or weed control at 125 g/ha / pest or weed control at 62 g/ha: read-out: Plant response rating, Kochia; for pest or weed control at 62 g/ha: Postemergence, 62 g ai/ha; for pest or weed control at 31 g/ha: 31 g ai/ha, 13 to 15 days, read-out: Kochia plant response rating
How it was run: as §3

[11] = tested on: velvetleaf; experiment: Test C postemergence; assay type: in vivo, Abutilon theophrasti; details: for pest or weed control at 16 g/ha / pest or weed control at 125 g/ha / pest or weed control at 62 g/ha: Abutilon theophrasti, post-emergence; for pest or weed control at 16 g/ha: 16 g ai/ha, 0 is no effect, 100 is complete control, read-out: Plant response rating (0 to 100), Velvetleaf; for pest or weed control at 16 g/ha / pest or weed control at 125 g/ha / Velvetleaf plant response rating: postemergence; for pest or weed control at 125 g/ha: 125 g ai/ha; for pest or weed control at 125 g/ha / Velvetleaf plant response rating: visual rating; for pest or weed control at 125 g/ha / pest or weed control at 62 g/ha / Velvetleaf plant response rating: scale 0 to 100 (0 no effect, 100 complete control); for pest or weed control at 125 g/ha / pest or weed control at 62 g/ha: read-out: Plant response rating, Velvetleaf; for pest or weed control at 62 g/ha: Postemergence, 62 g ai/ha; for Velvetleaf plant response rating: 31 g ai/ha, 13 to 15 days
How it was run: as §3

[12] = 0 to 100 scale where 0 is no effect and 100 is complete control

Row | SMILES | plant injury at 250 g/ha [3] | pest or weed control at 250 g/ha [4] | pest or weed control at 16 g/ha [5] | pest or weed control at 125 g/ha [5] | pest or weed control at 62 g/ha [5] | pest or weed control at 16 g/ha [6] | pest or weed control at 125 g/ha [6] | pest or weed control at 62 g/ha [6] | pest or weed control at 16 g/ha [7] | pest or weed control at 125 g/ha [7] | pest or weed control at 62 g/ha [7] | Soybean plant response rating (crop injury, 0-100 scale) at 16 g/ha [8] | Soybean plant response rating (crop injury, 0-100 scale) at 125 g/ha [8] | Soybean plant response rating (crop injury, 0-100 scale) at 62 g/ha [8] | plant injury at 16 g/ha [9] | plant injury at 125 g/ha [9] | plant injury at 62 g/ha [9] | pest or weed control at 16 g/ha [10] | pest or weed control at 125 g/ha [10] | pest or weed control at 62 g/ha [10] | further results
1 | Fc1cccc(Oc2ncc(Cl)cn2)c1-n1cc(C(F)F)nn1 [Compound 141, 5-chloro-2-[2-[4-(difluoromethyl)-1H-1,2,3-triazol-1-yl]-3-fluorophenoxy]pyrimidine] | 45% | 100% | 85% | 100% | 100% | 85% | 100% | 95% | 90% | 98% | 100% | 85% | 95% | 90% | 50% | 98% | 95% | 100% | 100% | 100% | pest or weed control at 31 g/ha ([1]; 31 g ai/ha, 0 to 100 scale, 0 no effect, 100 complete control, read-out: Plant response rating, Foxtail, Giant): 90%; pest or weed control at 125 g/ha [1, 12]: 100%; plant injury at 31 g/ha ([2]; 31 g ai/ha, 0 to 100 scale, 0 no effect, 100 complete control, read-out: Plant response rating, Wheat): 10%; plant injury at 125 g/ha [2, 12]: 80%; pest or weed control at 16 g/ha [11]: 80%; pest or weed control at 125 g/ha [11]: 100%; pest or weed control at 62 g/ha [11]: 100%
2 | Clc1cnc(Oc2ccccc2-n2cc(C3CC3)nn2)nc1 [Compound 160, 5-chloro-2-[2-(4-cyclopropyl-1H-1,2,3-triazol-1-yl)phenoxy]pyrimidine] | 35% | 80% | 65% | 95% | 70% | 5% | 65% | 75% | 80% | 85% | 75% | 40% | 60% | 60% | 10% | 60% | 60% | 85% | 100% | 98% | pest or weed control at 1000 g/ha ([1]; 1000 g ai/ha, 0 to 100 scale, 0 no effect, 100 complete control, read-out: Plant response rating Foxtail, Giant): 100%; plant injury at 1000 g/ha ([2]; 1000 g ai/ha, 0 to 100 scale, 0 no effect, 100 complete control, read-out: Plant response rating Wheat): 100%; Lambsquarters plant response rating [5]: 65; Morningglory plant response rating [6]: 75; Pigweed plant response rating [7]: 75; Soybean plant response rating [8]: 55; Oilseed Rape plant response rating [9]: 55; pest or weed control at 31 g/ha [10]: 90%; Velvetleaf plant response rating [11]: 65; pest or weed control at 16 g/ha [11]: 45%; pest or weed control at 125 g/ha [11]: 90%; pest or weed control at 62 g/ha [11]: 80%
3 | FC(F)c1cn(-c2ccccc2Oc2ncc(Cl)cn2)nn1 [Compound 147, 5-chloro-2-[2-[4-(difluoromethyl)-1H-1,2,3-triazol-1-yl]phenoxy]pyrimidine] | 35% | 80% | 60% | 98% | 90% | 70% | 80% | 75% | 35% | 85% | 75% | 65% | 90% | 85% | 25% | 95% | 75% | 40% | 100% | 95% | pest or weed control at 125 g/ha [1, 12]: 90%; pest or weed control at 500 g/ha ([1]; 500 g ai/ha, 0 to 100 scale where 0 is no effect and 100 is complete control, read-out: Plant response rating, Foxtail, Giant): 90%; plant injury at 125 g/ha [2, 12]: 50%; plant injury at 500 g/ha ([2]; 500 g ai/ha, 0 to 100 scale where 0 is no effect and 100 is complete control, read-out: Plant response rating, Wheat): 80%; Lambsquarters plant response rating [5]: 75; Morningglory plant response rating [6]: 70; Pigweed plant response rating [7]: 60; Soybean plant response rating [8]: 65; Oilseed Rape plant response rating [9]: 40; pest or weed control at 31 g/ha [10]: 90%; Velvetleaf plant response rating [11]: 70; pest or weed control at 16 g/ha [11]: 55%; pest or weed control at 125 g/ha [11]: 75%; pest or weed control at 62 g/ha [11]: 85%
